Measured values: PubChem BioAssay (NCI)
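These data come from cells grown in 96-well plates and exposed to compound for 48 hours at five concentrations. Abbreviation: GI50, concentration required for 50% inhibition of growth. The concentration for full growth arrest is given as TGI.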

The compounds below were run on T-47D breast (assay: NCI-60 cell line screen, 48 h).
For `COC(=O)c1cccc(C)c1C1CN=NC12Cc1cc(C)cc(C)c1C2=O` (stereo not drawn), the TGI was 53.7 µM.
Work on `O=C1c2ccccc2-n2nnnc2C2CSCN12` (stereo not drawn) yielded a TGI of over 100 µM.
For `CCOC(=O)/C(C#N)=C/c1coc2cc(C)cc(C)c2c1=O`, the TGI was over 100 µM.
Work on `COc1ccc(C(SCCO)(c2ccccc2)c2ccc(OC)cc2)cc1` yielded a TGI of 34.1 µM.
With `O=C1C(Br)=C(Br)C(=O)c2ccc(=O)ccc21` the TGI was 48.5 µM.
For `CC(N)/C(N)=N/O` (stereo not drawn), the TGI was over 100 µM.
Work on `CCOC(=O)CCC(NC(=O)C(N)Cc1ccc(N(CCCl)CCCl)cc1)C(=O)OCC` (stereo not drawn) yielded a TGI of 3.84 µM.
Work on `COc1ccccc1CC(=O)C(O)(C(F)(F)F)C(F)(F)F` yielded a TGI of over 100 µM.
For `CCOC(=O)c1ccc(-c2cc(C)no2)[nH]1`, the TGI was over 100 µM.

These compounds were tested on NCI/ADR-RES ovarian (assay: NCI-60 cell line screen, 48 h).
`NC(Cc1ccccc1)C(=O)NC(Cc1ccccc1)NC(=O)C(Cc1c[nH]c2ccccc12)C(=O)O` (stereo not drawn) showed a TGI of over 100 µM.
Work on `COc1cc(S(=O)(=O)Nc2ccc(-c3csc(N4C(=O)CSC4c4cccc(Oc5ccccc5)c4)n3)cc2)ccc1Cl` (stereo not drawn) yielded a TGI of over 100 µM.
Compound `O=C1c2cccc3cc([N+](=O)[O-])cc(c23)C(=O)N1Nc1ccc([N+](=O)[O-])cc1[N+](=O)[O-]` has a TGI of over 31.6 µM.
`CC(=O)CC1CCC(=O)/C=C/C(=O)OC(CC(C)=O)CCC(=O)/C=C/C(=O)O1` (stereo not drawn) showed a TGI of 53.2 µM.
For `O=C1c2sc(-c3ccc(Cl)cc3)cc2-n2cccc21`, the TGI was over 100 µM.
Work on `O=C1SC(SCc2ccccc2)=NC12CC2c1ccccc1` (stereo not drawn) yielded a TGI of 63 µM.
Work on `N=c1oc2ccccc2cc1C(=O)NC12CC3CC(CC(C3)C1)C2` yielded a TGI of over 100 µM.
For `O=C1NC2(CCN(CCc3ccccc3)CC2)Oc2ccccc21`, the TGI was over 100 µM.
In the case of `COc1cc2c(/C=C3/C(=O)Nc4cccc(Cl)c43)c(Cl)[nH]c2cc1C`, the TGI is reported as 3.45 µM.
Compound `Nc1ncc2c(n1)-c1ccccc1OC2N1CCCCC1` (stereo not drawn) has a TGI of over 100 µM.
With `Cc1ccc(S(=O)(=O)N2C3C=CC(C3)[C@@H]2C(Cl)(Cl)Cl)cc1` (stereo partly drawn) the TGI was 44.6 µM.
Work on `COCOC1/C=C/CCCCC(=O)C(C)C#CC1` (stereo not drawn) yielded a TGI of 14.4 µM.
`C[N+]12C=CC=C1C(N1CCCC1)c1scc(-c3ccc(Br)cc3)c12` (stereo not drawn) was tested, and the TGI was over 100 µM.
`COC(=O)c1cccc(C)c1C1CN=NC12Cc1cc(C)cc(C)c1C2=O` (stereo not drawn) showed a TGI of over 100 µM.
For `O=C1c2ccccc2-n2nnnc2C2CSCN12` (stereo not drawn), the TGI was over 100 µM.
For `CCOC(=O)/C(C#N)=C/c1coc2cc(C)cc(C)c2c1=O`, the TGI was over 100 µM.
Work on `COc1ccc(C(SCCO)(c2ccccc2)c2ccc(OC)cc2)cc1` yielded a TGI of 34.7 µM.
`O=C1C(Br)=C(Br)C(=O)c2ccc(=O)ccc21` showed a TGI of 53.3 µM.
Compound `CC(N)/C(N)=N/O` (stereo not drawn) has a TGI of over 100 µM.
In the case of `CCOC(=O)CCC(NC(=O)C(N)Cc1ccc(N(CCCl)CCCl)cc1)C(=O)OCC` (stereo not drawn), the GI50 is reported as 3.52 µM and the TGI is reported as 19 µM.
`COc1ccccc1CC(=O)C(O)(C(F)(F)F)C(F)(F)F` was tested, and the TGI was over 100 µM.
Compound `CCOC(=O)c1ccc(-c2cc(C)no2)[nH]1` has a TGI of over 100 µM.

The compounds below were run on A498 renal (assay: NCI-60 cell line screen, 48 h).
In the case of `NC(Cc1ccccc1)C(=O)NC(Cc1ccccc1)NC(=O)C(Cc1c[nH]c2ccccc12)C(=O)O` (stereo not drawn), the TGI is reported as over 100 µM.
In the case of `COc1cc(S(=O)(=O)Nc2ccc(-c3csc(N4C(=O)CSC4c4cccc(Oc5ccccc5)c4)n3)cc2)ccc1Cl` (stereo not drawn), the TGI is reported as over 100 µM.
With `O=C1c2cccc3cc([N+](=O)[O-])cc(c23)C(=O)N1Nc1ccc([N+](=O)[O-])cc1[N+](=O)[O-]` the TGI was 41.1 µM.
With `CC(=O)CC1CCC(=O)/C=C/C(=O)OC(CC(C)=O)CCC(=O)/C=C/C(=O)O1` (stereo not drawn) the TGI was 33.7 µM.
`O=C1c2sc(-c3ccc(Cl)cc3)cc2-n2cccc21` was tested, and the TGI was over 100 µM.
`O=C1SC(SCc2ccccc2)=NC12CC2c1ccccc1` (stereo not drawn) was tested, and the TGI was 65.1 µM.
Compound `N=c1oc2ccccc2cc1C(=O)NC12CC3CC(CC(C3)C1)C2` has a TGI of over 82.1 µM.
Work on `O=C1NC2(CCN(CCc3ccccc3)CC2)Oc2ccccc21` yielded a TGI of over 100 µM.
With `COc1cc2c(/C=C3/C(=O)Nc4cccc(Cl)c43)c(Cl)[nH]c2cc1C` the TGI was 20.7 µM.
`Nc1ncc2c(n1)-c1ccccc1OC2N1CCCCC1` (stereo not drawn) was tested, and the TGI was over 100 µM.
In the case of `Cc1ccc(S(=O)(=O)N2C3C=CC(C3)[C@@H]2C(Cl)(Cl)Cl)cc1` (stereo partly drawn), the GI50 is reported as 11.8 µM and the TGI is reported as 47.5 µM.
`COCOC1/C=C/CCCCC(=O)C(C)C#CC1` (stereo not drawn) showed a TGI of 24.6 µM.
For `C[N+]12C=CC=C1C(N1CCCC1)c1scc(-c3ccc(Br)cc3)c12` (stereo not drawn), the TGI was over 100 µM.
`COC(=O)c1cccc(C)c1C1CN=NC12Cc1cc(C)cc(C)c1C2=O` (stereo not drawn) was tested, and the TGI was over 100 µM.
`O=C1c2ccccc2-n2nnnc2C2CSCN12` (stereo not drawn) gave a TGI of over 100 µM.
`CCOC(=O)/C(C#N)=C/c1coc2cc(C)cc(C)c2c1=O` showed a TGI of over 100 µM.
`COc1ccc(C(SCCO)(c2ccccc2)c2ccc(OC)cc2)cc1` gave a TGI of 27.1 µM.
`O=C1C(Br)=C(Br)C(=O)c2ccc(=O)ccc21` gave a TGI of over 100 µM.
`CC(N)/C(N)=N/O` (stereo not drawn) showed a TGI of over 100 µM.
`CCOC(=O)CCC(NC(=O)C(N)Cc1ccc(N(CCCl)CCCl)cc1)C(=O)OCC` (stereo not drawn) was tested, and the TGI was over 100 µM.
`COc1ccccc1CC(=O)C(O)(C(F)(F)F)C(F)(F)F` showed a TGI of over 100 µM.
`CCOC(=O)c1ccc(-c2cc(C)no2)[nH]1` showed a TGI of over 100 µM.

What follows are compounds tested on RXF 393 renal (assay: NCI-60 cell line screen, 48 h).
Work on `NC(Cc1ccccc1)C(=O)NC(Cc1ccccc1)NC(=O)C(Cc1c[nH]c2ccccc12)C(=O)O` (stereo not drawn) yielded a TGI of over 100 µM.
`COc1cc(S(=O)(=O)Nc2ccc(-c3csc(N4C(=O)CSC4c4cccc(Oc5ccccc5)c4)n3)cc2)ccc1Cl` (stereo not drawn) gave a TGI of 52.8 µM.
`O=C1c2cccc3cc([N+](=O)[O-])cc(c23)C(=O)N1Nc1ccc([N+](=O)[O-])cc1[N+](=O)[O-]` showed a TGI of over 31.6 µM.
With `CC(=O)CC1CCC(=O)/C=C/C(=O)OC(CC(C)=O)CCC(=O)/C=C/C(=O)O1` (stereo not drawn) the TGI was 8.55 µM.
For `O=C1c2sc(-c3ccc(Cl)cc3)cc2-n2cccc21`, the TGI was over 100 µM.
`O=C1SC(SCc2ccccc2)=NC12CC2c1ccccc1` (stereo not drawn) showed a TGI of 37.2 µM.
For `N=c1oc2ccccc2cc1C(=O)NC12CC3CC(CC(C3)C1)C2`, the TGI was 24.2 µM.
Compound `O=C1NC2(CCN(CCc3ccccc3)CC2)Oc2ccccc21` has a TGI of over 100 µM.
`COc1cc2c(/C=C3/C(=O)Nc4cccc(Cl)c43)c(Cl)[nH]c2cc1C` showed a TGI of 7.41 µM.
`Nc1ncc2c(n1)-c1ccccc1OC2N1CCCCC1` (stereo not drawn) was tested, and the TGI was over 100 µM.
With `Cc1ccc(S(=O)(=O)N2C3C=CC(C3)[C@@H]2C(Cl)(Cl)Cl)cc1` (stereo partly drawn) the GI50 was 19.2 µM and the TGI was 41.4 µM.
`COCOC1/C=C/CCCCC(=O)C(C)C#CC1` (stereo not drawn) showed a TGI of 9.19 µM.
`C[N+]12C=CC=C1C(N1CCCC1)c1scc(-c3ccc(Br)cc3)c12` (stereo not drawn) gave a TGI of 43.5 µM.
With `COC(=O)c1cccc(C)c1C1CN=NC12Cc1cc(C)cc(C)c1C2=O` (stereo not drawn) the TGI was over 100 µM.
`O=C1c2ccccc2-n2nnnc2C2CSCN12` (stereo not drawn) showed a TGI of over 100 µM.
`CCOC(=O)/C(C#N)=C/c1coc2cc(C)cc(C)c2c1=O` was tested, and the TGI was over 100 µM.
`COc1ccc(C(SCCO)(c2ccccc2)c2ccc(OC)cc2)cc1` was tested, and the TGI was 17.7 µM.
Compound `O=C1C(Br)=C(Br)C(=O)c2ccc(=O)ccc21` has a TGI of 36.3 µM.
`CC(N)/C(N)=N/O` (stereo not drawn) showed a TGI of over 100 µM.
With `CCOC(=O)CCC(NC(=O)C(N)Cc1ccc(N(CCCl)CCCl)cc1)C(=O)OCC` (stereo not drawn) the GI50 was 0.17 µM and the TGI was 0.739 µM.
For `COc1ccccc1CC(=O)C(O)(C(F)(F)F)C(F)(F)F`, the TGI was over 100 µM.
With `CCOC(=O)c1ccc(-c2cc(C)no2)[nH]1` the TGI was over 100 µM.

Each compound was assayed on UO-31 renal (assay: NCI-60 cell line screen, 48 h).
`NC(Cc1ccccc1)C(=O)NC(Cc1ccccc1)NC(=O)C(Cc1c[nH]c2ccccc12)C(=O)O` (stereo not drawn) gave a TGI of over 100 µM.
With `COc1cc(S(=O)(=O)Nc2ccc(-c3csc(N4C(=O)CSC4c4cccc(Oc5ccccc5)c4)n3)cc2)ccc1Cl` (stereo not drawn) the TGI was over 100 µM.
With `O=C1c2cccc3cc([N+](=O)[O-])cc(c23)C(=O)N1Nc1ccc([N+](=O)[O-])cc1[N+](=O)[O-]` the TGI was 33.1 µM.
Work on `CC(=O)CC1CCC(=O)/C=C/C(=O)OC(CC(C)=O)CCC(=O)/C=C/C(=O)O1` (stereo not drawn) yielded a TGI of 26.9 µM.
